From PMC5253077 (Acta biomaterialia, 2016)
≈ marks a conversion by molar mass, not a printed value. Square brackets hold non-standard residues; d marks the D form. Peptide text beside a SMILES is read from it.

Columns and labels:
HeLa CCL-2 cells = assay type: cell-based, human
B. megaterium = conditions: cited from earlier work
[1] = tested on: E. coli ATCC 25922 and ML-35p strains; conditions: cited from earlier work
S. aureus ATCC 25923 = conditions: cited from earlier work
E. coli ATCC 35218 = conditions: cited from earlier work
Human HeLa (HeLa CCL-2) = experiment: MTS cytotoxicity assay; assay type: cell-based
Chicken RBCs = experiment: Hemolytic assay; assay type: cell-based; conditions: 2% blood cells in PBS, 37°C, one hour, hemoglobin at 545 nm
S. epidermidis 1457 = assay type: cell-based, Staphylococcus epidermidis; conditions: 1457, 20 h
Human HEK293 = experiment: MTS cytotoxicity assay; assay type: cell-based; conditions: kidney cells
Porcine RBCs = experiment: Hemolytic assay; assay type: cell-based, pig; conditions: 2% blood cells in PBS, 37°C, one hour, hemoglobin at 545 nm
Human HaCaT = experiment: MTS cytotoxicity assay; assay type: cell-based; conditions: skin keratinocytes
C. glabrata ATCC 2001 = assay type: cell-based, Candida glabrata; conditions: ATCC 2001, 48 h
[2] = tested on: Candida albicans ATCC 10231; assay type: cell-based; conditions: ATCC 10231, 48 h
S. aureus USA300 [3] = assay type: cell-based, Staphylococcus aureus
S. aureus USA300 [4] = assay type: cell-based, Staphylococcus aureus; conditions: USA300, 20 h
B. subtilis 168 = assay type: cell-based, Bacillus subtilis; conditions: 168, 20 h
E. coli K12 = assay type: cell-based, Escherichia coli; conditions: K12, 20 h
C. tropicalis ATCC 13803 = assay type: cell-based, Candida tropicalis; conditions: ATCC 13803, 48 h

CC[C@H](C)[C@H](NC(=O)[C@H](CCCNC(=N)N)NC(=O)[C@H](CCCNC(=N)N)NC(=O)[C@H](CC(C)C)NC(=O)[C@H](Cc1c[nH]c2ccccc12)NC(=O)[C@H](Cc1c[nH]c2ccccc12)NC(=O)[C@H](Cc1c[nH]c2ccccc12)NC(=O)[C@@H](N)CS)C(=O)N[C@@H](Cc1c[nH]c2ccccc12)C(=O)O [CysTetraF2W-RR] (H-CWWWLRRIW-OH)
cytotoxicity of free peptide to HeLa CCL-2 cells (HeLa CCL-2 cells): nontoxic

CC[C@H](C)[C@H](NC(=O)[C@H](CCCNC(=N)N)NC(=O)[C@H](CO)NC(=O)[C@H](CC(C)C)NC(=O)[C@H](Cc1ccccc1)NC(=O)[C@H](Cc1ccccc1)NC(=O)[C@@H](N)Cc1ccccc1)C(=O)N[C@@H](Cc1ccccc1)C(N)=O [Temporin-SHf] (H-FFFLSRIF-NH2; N-terminus and C-terminus assumed)
MIC B. megaterium (B. megaterium): 3 µM (≈ 3.23 µg/mL) | MIC E. coli ATCC 25922 and ML-35p strains [1]: 25 to 30 µM | MIC S. aureus ATCC 25923 (S. aureus ATCC 25923): 12.5 µM (≈ 13.4 µg/mL) | MIC E. coli ATCC 35218 (E. coli ATCC 35218): > 200 µM

CC[C@H](C)[C@H](NC(=O)[C@H](CCCCN)NC(=O)[C@H](CCCCN)NC(=O)[C@H](CC(C)C)NC(=O)[C@H](Cc1c[nH]c2ccccc12)NC(=O)[C@H](Cc1c[nH]c2ccccc12)NC(=O)[C@@H](N)Cc1c[nH]c2ccccc12)C(=O)N[C@@H](Cc1c[nH]c2ccccc12)C(=O)O [TetraF2W-KK] (H-WWWLKKIW-OH)
LC50 Human HeLa (Human HeLa (HeLa CCL-2)): 70 µM | LC50 (50% hemolytic concentration) Chicken RBCs (Chicken RBCs): 50 µM | MIC S. epidermidis 1457 (S. epidermidis 1457): 6.2 µM (≈ 7.72 µg/mL) | LC50 Human HEK293 (Human HEK293): 50 µM | LC50 (50% hemolytic concentration) Porcine RBCs (Porcine RBCs): 55 µM | LC50 Human HaCaT (Human HaCaT): 50 µM | MIC Candida glabrata (C. glabrata ATCC 2001): 6.2 to 12.5 µM | MIC Candida albicans [2]: 6.2 µM (≈ 7.72 µg/mL) | MBC S. aureus USA300 (S. aureus USA300 [3]): >25 µM | MIC S. aureus USA300 (S. aureus USA300 [4]): 3.1 to 6.2 µM | MIC against S. aureus USA300, 150 mM NaCl (S. aureus USA300 [4]): 3.1 to 6.2 µM | MIC against S. aureus USA300, pH 6.8 (S. aureus USA300 [4]): 12.5 μM | MIC against S. aureus USA300, Normal medium (pH 7.4) (S. aureus USA300 [4]): 3.1–6.2 μM | MIC against S. aureus USA300, pH 8 (S. aureus USA300 [4]): 3.1 μM | MIC B. subtilis 168 (B. subtilis 168): 6.2 µM (≈ 7.72 µg/mL) | MIC E. coli K12 (E. coli K12): 12.5 to 25 µM | MIC Candida tropicalis (C. tropicalis ATCC 13803): 1.6 µM (≈ 1.99 µg/mL)

CC[C@H](C)[C@H](NC(=O)[C@H](CCCNC(=N)N)NC(=O)[C@H](CCCCN)NC(=O)[C@H](CC(C)C)NC(=O)[C@H](Cc1c[nH]c2ccccc12)NC(=O)[C@H](Cc1c[nH]c2ccccc12)NC(=O)[C@@H](N)Cc1c[nH]c2ccccc12)C(=O)N[C@@H](Cc1c[nH]c2ccccc12)C(=O)O [TetraF2W-KR] (H-WWWLKRIW-OH)
LC50 Human HeLa (Human HeLa (HeLa CCL-2)): 100 µM | LC50 (50% hemolytic concentration) Chicken RBCs (Chicken RBCs): 35 µM | MIC S. epidermidis 1457 (S. epidermidis 1457): 12.5 µM (≈ 15.9 µg/mL) | LC50 Human HEK293 (Human HEK293): 55 µM | LC50 (50% hemolytic concentration) Porcine RBCs (Porcine RBCs): 50 µM | LC50 Human HaCaT (Human HaCaT): 60 µM | MIC Candida glabrata (C. glabrata ATCC 2001): 12.5 µM (≈ 15.9 µg/mL) | MIC Candida albicans [2]: 12.5 µM (≈ 15.9 µg/mL) | MBC S. aureus USA300 (S. aureus USA300 [3]): 12.5 µM (≈ 15.9 µg/mL) | MIC S. aureus USA300 (S. aureus USA300 [4]): 3.1 µM (≈ 3.95 µg/mL) | MIC against S. aureus USA300, 150 mM NaCl (S. aureus USA300 [4]): 3.1 µM (≈ 3.95 µg/mL) | MIC against S. aureus USA300, pH 6.8 (S. aureus USA300 [4]): 6.2 μM | MIC against S. aureus USA300, Normal medium (pH 7.4) (S. aureus USA300 [4]): 3.1 μM | MIC against S. aureus USA300, pH 8 (S. aureus USA300 [4]): 3.1 μM | MIC B. subtilis 168 (B. subtilis 168): 6.2 µM (≈ 7.9 µg/mL) | MIC E. coli K12 (E. coli K12): 12.5 to 25 µM | MIC Candida tropicalis (C. tropicalis ATCC 13803): 3.1 to 6.2 µM

CC[C@@H](C)[C@@H](NC(=O)[C@@H](CCCCN)NC(=O)[C@@H](CCCNC(=N)N)NC(=O)[C@@H](CC(C)C)NC(=O)[C@@H](Cc1c[nH]c2ccccc12)NC(=O)[C@@H](Cc1c[nH]c2ccccc12)NC(=O)[C@H](N)Cc1c[nH]c2ccccc12)C(=O)N[C@H](Cc1c[nH]c2ccccc12)C(=O)O [TetraF2W-RK-d] (H-[dW][dW][dW][dL][dR][dK][dI][dW]-OH)
MIC S. epidermidis 1457 (S. epidermidis 1457): 6.2 µM (≈ 7.9 µg/mL) | MBC S. aureus USA300 (S. aureus USA300 [3]): 12.5 µM (≈ 15.9 µg/mL) | MIC S. aureus USA300 (S. aureus USA300 [4]): 3.1 µM (≈ 3.95 µg/mL) | MIC B. subtilis 168 (B. subtilis 168): 3.1 µM (≈ 3.95 µg/mL) | MIC E. coli K12 (E. coli K12): 6.2 µM (≈ 7.9 µg/mL)

CC[C@H](C)[C@H](NC(=O)[C@H](CCCCN)NC(=O)[C@H](CCCNC(=N)N)NC(=O)[C@H](CC(C)C)NC(=O)[C@H](Cc1c[nH]c2ccccc12)NC(=O)[C@H](Cc1c[nH]c2ccccc12)NC(=O)[C@@H](N)Cc1c[nH]c2ccccc12)C(=O)N[C@@H](Cc1c[nH]c2ccccc12)C(=O)O [TetraF2W-RK] (H-WWWLRKIW-OH)
MIC S. epidermidis 1457 (S. epidermidis 1457): 6.2 µM (≈ 7.9 µg/mL) | MIC Candida glabrata (C. glabrata ATCC 2001): 12.5 µM (≈ 15.9 µg/mL) | MIC Candida albicans [2]: 12.5 µM (≈ 15.9 µg/mL) | MBC S. aureus USA300 (S. aureus USA300 [3]): 12.5 µM (≈ 15.9 µg/mL) | MIC S. aureus USA300 (S. aureus USA300 [4]): 3.1 µM (≈ 3.95 µg/mL) | MIC against S. aureus USA300, 150 mM NaCl (S. aureus USA300 [4]): 3.1 µM (≈ 3.95 µg/mL) | MIC against S. aureus USA300, pH 6.8 (S. aureus USA300 [4]): 6.2 μM | MIC against S. aureus USA300, Normal medium (pH 7.4) (S. aureus USA300 [4]): 3.1 μM | MIC against S. aureus USA300, pH 8 (S. aureus USA300 [4]): 3.1 μM | MIC B. subtilis 168 (B. subtilis 168): 6.2 µM (≈ 7.9 µg/mL) | MIC E. coli K12 (E. coli K12): 25 µM (≈ 31.8 µg/mL) | MIC Candida tropicalis (C. tropicalis ATCC 13803): 3.1 to 6.2 µM

CC[C@H](C)[C@H](NC(=O)[C@H](CCCNC(=N)N)NC(=O)[C@H](CO)NC(=O)[C@H](CC(C)C)NC(=O)[C@H](Cc1c[nH]c2ccccc12)NC(=O)[C@H](Cc1c[nH]c2ccccc12)NC(=O)[C@@H](N)Cc1c[nH]c2ccccc12)C(=O)N[C@@H](Cc1c[nH]c2ccccc12)C(=O)O [TetraF2W] (H-WWWLSRIW-OH)
MIC S. epidermidis 1457 (S. epidermidis 1457): >50 µM | MBC S. aureus USA300 (S. aureus USA300 [3]): 6.2 µM (≈ 7.64 µg/mL) | MIC S. aureus USA300 (S. aureus USA300 [4]): 3.1 to 6.2 µM | MIC B. subtilis 168 (B. subtilis 168): 6.2 µM (≈ 7.64 µg/mL) | MIC E. coli K12 (E. coli K12): >100 µM
